Assay results taken from ChEMBL document CHEMBL5344474, “Molecular editing of NSC-666719 enabling discovery of benzodithiazinedioxide-guanidines as anticancer agents” (RSC Med Chem, 2024).

System: MCF7
Assay: Antiproliferative activity against human MCF7 cells incubated for 72 hrs by MTT assay
Settings: MCF7, 72 h

| Compound | IC50 [µM] |
| --- | --- |
| Cc1cc(S(=O)(=O)Nc2nc(Nc3cccc4cnccc34)n[nH]2)c(S)cc1Cl | 7.4 |
| Cc1cc(S(=O)(=O)Nc2nc(Nc3ccc4ncccc4c3)n[nH]2)c(S)cc1Cl | 7.1 |
| Cc1cc(S(=O)(=O)Nc2nc(Nc3cccc4cccnc34)n[nH]2)c(S)cc1Cl | 8.2 |
| Cc1cc(S(=O)(=O)Nc2nc(Nc3ccc4cnccc4c3)n[nH]2)c(S)cc1Cl | 7.6 |
| COc1cc2nccc(Nc3n[nH]c(NS(=O)(=O)c4cc(C)c(Cl)cc4S)n3)c2cc1OC | 8.4 |
| Cc1cc2c(cc1Cl)SC(/N=C(/N)Nc1cccc3cccnc13)=NS2(=O)=O | 3.6 |
| COc1cccc2c(O)ccc(N/C(N)=N\C3=NS(=O)(=O)c4cc(C)c(Cl)cc4S3)c12 | 3.2 |

Now those with a lower IC50, led by results:

| IC50 [µM] | Compound |
| --- | --- |
| 2.3 | Cc1cc2c(cc1Cl)SC(/N=C(/N)Nc1ccc3ccccc3n1)=NS2(=O)=O |
| 1.1 | Cc1cc2c(cc1Cl)SC(/N=C(/N)Nc1ccc(N3CCOCC3)cc1)=NS2(=O)=O |
| 3 | Cc1cc2c(cc1Cl)SC(/N=C(/N)Nc1cncc3ccccc13)=NS2(=O)=O |
| 3.1 | Cc1cc(S(=O)(=O)Nc2nc(Nc3ccc(Br)cc3)n[nH]2)c(S)cc1Cl |

System: MDA-MB-231
Assay: Antiproliferative activity against human MDA-MB-231 cells incubated for 72 hrs by MTT assay
Settings: MDA-MB-231, 72 h

| Compound | IC50 [µM] |
| --- | --- |
| Cc1cc(S(=O)(=O)Nc2nc(Nc3cccc4cnccc34)n[nH]2)c(S)cc1Cl | 8.7 |
| Cc1cc(S(=O)(=O)Nc2nc(Nc3ccc4ncccc4c3)n[nH]2)c(S)cc1Cl | 8.2 |
| Cc1cc(S(=O)(=O)Nc2nc(Nc3cccc4cccnc34)n[nH]2)c(S)cc1Cl | 8.8 |
| Cc1cc(S(=O)(=O)Nc2nc(Nc3ccc4cnccc4c3)n[nH]2)c(S)cc1Cl | 8.2 |
| COc1cc2nccc(Nc3n[nH]c(NS(=O)(=O)c4cc(C)c(Cl)cc4S)n3)c2cc1OC | 9.2 |
| Cc1cc2c(cc1Cl)SC(/N=C(/N)Nc1cccc3cccnc13)=NS2(=O)=O | 5.6 |
| COc1cccc2c(O)ccc(N/C(N)=N\C3=NS(=O)(=O)c4cc(C)c(Cl)cc4S3)c12 | 6.3 |

More lines, now with the values ahead:

| IC50 [µM] | Compound |
| --- | --- |
| 3.8 | Cc1cc2c(cc1Cl)SC(/N=C(/N)Nc1ccc3ccccc3n1)=NS2(=O)=O |
| 2.4 | Cc1cc2c(cc1Cl)SC(/N=C(/N)Nc1ccc(N3CCOCC3)cc1)=NS2(=O)=O |
| 5.3 | Cc1cc2c(cc1Cl)SC(/N=C(/N)Nc1cncc3ccccc13)=NS2(=O)=O |
| 3.9 | Cc1cc(S(=O)(=O)Nc2nc(Nc3ccc(Br)cc3)n[nH]2)c(S)cc1Cl |

System: HCT-116
Assay: Antiproliferative activity against human HCT-116 cells incubated for 72 hrs by MTT assay
Settings: HCT-116, 72 h

| IC50 [µM] | Compound |
| --- | --- |
| 4.4 | Cc1cc2c(cc1Cl)SC(/N=C(/N)Nc1ccc(N3CCOCC3)cc1)=NS2(=O)=O |

System: SCC-9
Assay: Antiproliferative activity against human SCC-9 cells incubated for 72 hrs by MTT assay
Settings: SCC-9, 72 h

| Compound | IC50 [µM] |
| --- | --- |
| Cc1cc2c(cc1Cl)SC(/N=C(/N)Nc1ccc(N3CCOCC3)cc1)=NS2(=O)=O | 1.2 |

System: not listed separately
Assay: Cytotoxicity against HEK293 cells incubated for 72 hrs by MTT assay
Settings: human

| Compound | IC50 at 72 h [µM] |
| --- | --- |
| Cc1cc2c(cc1Cl)SC(/N=C(/N)Nc1ccc(N3CCOCC3)cc1)=NS2(=O)=O | 70.1 |

System: not listed separately
Assay: Selectivity index, ratio of IC50 for HEK293 cells to IC50 for human MCF7 cells
Settings: HEK293 cells versus MCF7 cells

| Compound | selectivity ratio |
| --- | --- |
| Cc1cc2c(cc1Cl)SC(/N=C(/N)Nc1ccc3ccccc3n1)=NS2(=O)=O | > 65 |
| Cc1cc(S(=O)(=O)Nc2nc(Nc3cccc4cnccc34)n[nH]2)c(S)cc1Cl | > 65 |
| Cc1cc(S(=O)(=O)Nc2nc(Nc3ccc4ncccc4c3)n[nH]2)c(S)cc1Cl | > 65 |
| Cc1cc2c(cc1Cl)SC(/N=C(/N)Nc1ccc(N3CCOCC3)cc1)=NS2(=O)=O | > 65 |
| Cc1cc(S(=O)(=O)Nc2nc(Nc3cccc4cccnc34)n[nH]2)c(S)cc1Cl | > 65 |
| Cc1cc2c(cc1Cl)SC(/N=C(/N)Nc1cncc3ccccc13)=NS2(=O)=O | > 65 |
| Cc1cc(S(=O)(=O)Nc2nc(Nc3ccc4cnccc4c3)n[nH]2)c(S)cc1Cl | > 65 |
| Cc1cc(S(=O)(=O)Nc2nc(Nc3ccc(Br)cc3)n[nH]2)c(S)cc1Cl | > 65 |
| COc1cc2nccc(Nc3n[nH]c(NS(=O)(=O)c4cc(C)c(Cl)cc4S)n3)c2cc1OC | > 65 |
| Cc1cc2c(cc1Cl)SC(/N=C(/N)Nc1cccc3cccnc13)=NS2(=O)=O | > 65 |
| COc1cccc2c(O)ccc(N/C(N)=N\C3=NS(=O)(=O)c4cc(C)c(Cl)cc4S3)c12 | > 65 |

System: not listed separately
Assay: Selectivity index, ratio of IC50 for HEK293 cells to IC50 for human MDA-MB-231 cells
Settings: HEK293 cells versus MDA-MB-231 cells

| Compound | selectivity ratio |
| --- | --- |
| Cc1cc2c(cc1Cl)SC(/N=C(/N)Nc1ccc3ccccc3n1)=NS2(=O)=O | > 65 |
| Cc1cc(S(=O)(=O)Nc2nc(Nc3cccc4cnccc34)n[nH]2)c(S)cc1Cl | > 65 |
| Cc1cc(S(=O)(=O)Nc2nc(Nc3ccc4ncccc4c3)n[nH]2)c(S)cc1Cl | > 65 |
| Cc1cc2c(cc1Cl)SC(/N=C(/N)Nc1ccc(N3CCOCC3)cc1)=NS2(=O)=O | > 65 |
| Cc1cc(S(=O)(=O)Nc2nc(Nc3cccc4cccnc34)n[nH]2)c(S)cc1Cl | > 65 |
| Cc1cc2c(cc1Cl)SC(/N=C(/N)Nc1cncc3ccccc13)=NS2(=O)=O | > 65 |
| Cc1cc(S(=O)(=O)Nc2nc(Nc3ccc4cnccc4c3)n[nH]2)c(S)cc1Cl | > 65 |
| Cc1cc(S(=O)(=O)Nc2nc(Nc3ccc(Br)cc3)n[nH]2)c(S)cc1Cl | > 65 |
| COc1cc2nccc(Nc3n[nH]c(NS(=O)(=O)c4cc(C)c(Cl)cc4S)n3)c2cc1OC | > 65 |
| Cc1cc2c(cc1Cl)SC(/N=C(/N)Nc1cccc3cccnc13)=NS2(=O)=O | > 65 |
| COc1cccc2c(O)ccc(N/C(N)=N\C3=NS(=O)(=O)c4cc(C)c(Cl)cc4S3)c12 | > 65 |

System: not listed separately
Assay: Selectivity index, ratio of IC50 for HEK293 cells to IC50 for human HCT-116 cells
Settings: HEK293 cells versus HCT-116 cells

| Compound | selectivity ratio |
| --- | --- |
| Cc1cc2c(cc1Cl)SC(/N=C(/N)Nc1ccc3ccccc3n1)=NS2(=O)=O | > 65 |
| Cc1cc(S(=O)(=O)Nc2nc(Nc3cccc4cnccc34)n[nH]2)c(S)cc1Cl | > 65 |
| Cc1cc(S(=O)(=O)Nc2nc(Nc3ccc4ncccc4c3)n[nH]2)c(S)cc1Cl | > 65 |
| Cc1cc2c(cc1Cl)SC(/N=C(/N)Nc1ccc(N3CCOCC3)cc1)=NS2(=O)=O | > 65 |
| Cc1cc(S(=O)(=O)Nc2nc(Nc3cccc4cccnc34)n[nH]2)c(S)cc1Cl | > 65 |
| Cc1cc2c(cc1Cl)SC(/N=C(/N)Nc1cncc3ccccc13)=NS2(=O)=O | > 65 |
| Cc1cc(S(=O)(=O)Nc2nc(Nc3ccc4cnccc4c3)n[nH]2)c(S)cc1Cl | > 65 |
| Cc1cc(S(=O)(=O)Nc2nc(Nc3ccc(Br)cc3)n[nH]2)c(S)cc1Cl | > 65 |
| COc1cc2nccc(Nc3n[nH]c(NS(=O)(=O)c4cc(C)c(Cl)cc4S)n3)c2cc1OC | > 65 |
| Cc1cc2c(cc1Cl)SC(/N=C(/N)Nc1cccc3cccnc13)=NS2(=O)=O | > 65 |
| COc1cccc2c(O)ccc(N/C(N)=N\C3=NS(=O)(=O)c4cc(C)c(Cl)cc4S3)c12 | > 65 |
